Tests used:
[1] = tested on: neural crest cells (NCCs); test: Expansion (suspension) culture of neural crest cells: percentage of SOX10 expression-positive cells by flow cytometry; assay type: cell-based, Human; conditions: for influence of concentration on change in the percentage of SOX10 expression-positive cells: bFGF and EGF 20 or 40 ng/ml
Text: (§1) Human iPSCs were allowed to differentiate into neural crest cells (NCCs) according to the method described in Non Patent Literature 1. The iPSCs used were SOX10-Nano-Lantern Reporter Human iPSCs (201B7 line) described in Non Patent Literature 4. This cell line has an insert of a nucleotide sequence encoding a fluorescent protein Nano-Lantern (Saito K. et al., “Luminescent proteins for high-speed single-cell and whole-body imaging.” Nat. Commun., 2012; 3: 1262) downstream of SOX10 gene, a marker gene of NCCs, and expresses a fusion protein of SOX10 and Nano-Lantern under the control of SOX10 promoter.
(§2) iPSCs were inoculated to a Matrigel-coated dish, adherent-cultured for 4 days in TeSR1 medium, and then adherent-cultured for 10 days in CDM medium containing 10 μM SB431542 (TGFβ inhibitor) and 1 μM CHIR99021 (GSK3β inhibitor), and thereby allowed to differentiate into NCCs.
[…] The cells were passaged every 7 days.
(§3) Change in total cell number after the start of expansion culture is shown in FIG. 1, and change in the percentage of SOX10 expression-positive cells is shown in FIG. 2. In order to measure the percentage of SOX10 expression-positive cells, an aggregated cell mass was dissociated using StemPro Accutase Cell Dissociation Reagent (Invitrogen Corp.) to prepare single-cell suspensions. The single-cell suspensions in FACS buffer (2% BSA HBSS) supplemented with 1 μg/mL PI (propidium iodide, Wako Pure Chemical Industries, Ltd.) were filtered through a tube with 35 μm nylon mesh (BD Falcon) and then analyzed using a flow cytometer (FACS Aria, BD Biosciences) to measure the ratio of GFP-positive cells in live cells (PI-negative cells). […] The expressed SOX10 serves as a marker of NCCs having multipotency.

[2] = tested on: neural crest cells (NCCs); test: Expansion (suspension) culture of neural crest cells: total cell number / rate of cell proliferation; assay type: cell-based, Human; conditions: for influence of concentration on change in total cell number: bFGF and EGF 20 or 40 ng/ml, CHIR99021 1, 2, 3, 3.5, 4, 4.5 or 5 μM
Text: as §1, §2
NCCs were detached from the dish and suspension-cultured in CDM medium containing 10 μM SB431542, 3 μM CHIR99021, 40 ng/ml bFGF and 40 ng/ml EGF. The cells were passaged every 7 days.
as §3

GSK3β = GSK3β (Homo sapiens, UniProt P49841); test: GSK3β inhibitory activity, CellSensor LEF/TCF-bla HCT-116 reporter assay; assay type: cell-based
Sequence of GSK3β (P49841 whole entry): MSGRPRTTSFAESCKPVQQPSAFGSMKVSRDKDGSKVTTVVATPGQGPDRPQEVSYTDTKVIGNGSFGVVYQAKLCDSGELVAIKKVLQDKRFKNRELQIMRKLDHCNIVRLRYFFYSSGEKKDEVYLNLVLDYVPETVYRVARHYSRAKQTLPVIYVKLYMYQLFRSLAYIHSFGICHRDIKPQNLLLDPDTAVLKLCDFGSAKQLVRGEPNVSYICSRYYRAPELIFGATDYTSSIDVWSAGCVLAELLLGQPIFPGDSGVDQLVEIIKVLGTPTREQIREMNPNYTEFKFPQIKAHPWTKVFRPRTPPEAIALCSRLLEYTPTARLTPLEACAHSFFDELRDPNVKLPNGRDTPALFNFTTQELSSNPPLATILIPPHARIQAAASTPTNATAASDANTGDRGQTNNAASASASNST
Text: In the Wnt/β-catenin pathway, GSK3β functions to phosphorylate β-catenin in the absence of Wnt-ligand. The phosphorylated β-catenin is ubiquitinated and degraded within the proteasome. Therefore, gene expression downstream of the Wnt-β-catenin pathway is suppressed. If GSK3β in this pathway is inhibited, β-catenin is translocated into the nucleus, without being degraded, to induce gene expression downstream of the Wnt-β-catenin pathway together with other transcription factors such as T-cell factor (TCF)/lymphoid enhancer factor (LEF). CellSensor LEF/TCF-bla HCT-116 Cell Line (Thermo Fisher Scientific Inc., K1676) stably incorporates therein LEF/TCF and incorporates a reporter gene (beta-lactamase reporter gene) so as to express the reporter gene under the control of LEF/TCF. The expression of the reporter gene in this cell line in the absence of the Wnt-ligand serves as an index for the inhibition of the function (β-catenin phosphorylation function) of GSK3β. The GSK3β inhibitory activity of the GSK3β inhibitor was measured by assay using this cell line.
The assay was conducted in accordance with the protocol of Invitrogen Corp. (CellSensor® LEF/TCF-bla HCT 116 Cell-based Assay Protocol).
Specifically, LEF/TCF-bla HCT-116 Cells were suspended in an assay medium (OPTI-MEM, 0.5% dialyzed FBS, 0.1 mM NEAA, 1 mM sodium pyruvate, 100 U/mL/100 μg/mL Pen/Strep) (312,500 cells/mL). The cell suspension was inoculated to each well of an assay plate (10,000 cells/well), and cultured for 16 to 24 hours.
A beta-lactamase substrate solution (LiveBLAzer-FRET B/G (CCF4-AM) Substrate Mixture) was added to each well (8 μL/well) and incubated for 2 hours. A fluorescence value was measured in a fluorescence plate reader. The measurement was performed in two wells per each concentration condition.

neural crest cells [3] = conditions: 1 μM CHIR99021; culture for 7 days; suspension culture; cited from earlier work
neural crest cells [4] = conditions: bFGF 0 pg/ml to 10 ng/ml; adherent culture; cited from earlier work
[5] = bFGF 10, 12.5, 15.0 or 17.5 ng/ml, CHIR99021 1.5 μM

In the case of `Cn1cc(C2=C(c3cccc(N)c3)C(=O)NC2=O)c2ccccc21` [CP21R7, 3-(3-amino-phenyl)-4-(1-methyl-1H-indol-3-yl)-pyrrole-2,5-dione], the “time of culture at which the number of cells that maintained multipotency decreased” value ([1]; CP21R7 0.1 μM) is reported as 21 days, the “percentage of SOX10 expression-positive cells” value ([1]; CP21R7 0.1 μM, on 21 days of culture) is reported as “started to decrease” and the “percentage of SOX10 expression-positive cells” value ([1]; CP21R7 0.5 or 1 μM, on 84 days of culture) is reported as “high percentage of SOX10 expression-positive cells was confirmed”. For the same molecule, the “period of culture and proliferation of neural crest cells that maintained multipotency” value ([1]; CP21R7 0.5 to 1 μM) was at least 84 days.
With `Cc1c[nH]c(-c2cnc(NCCNc3ccc(C#N)cn3)nc2-c2ccc(Cl)cc2Cl)n1` [CHIR99021, 6-[[2-[[4-(2,4-dichlorophenyl)-5-(4-methyl-1H-imidazol-2-yl)-2-pyrimidinyl]amino]ethyl]amino]nicotinonitrile] the “change in total cell number after the start of expansion culture” value ([2]; 3 μM CHIR99021, 10 μM SB431542, 40 ng/ml bFGF, 40 ng/ml EGF, whole culture period) was “increased over the whole period”, the “influence of concentration on change in total cell number” value [2] was “no influence” and the “Fluorescence value Well 1” value (GSK3β; 0.316 nM) was 6. The “Fluorescence value Well 2” value (GSK3β; 0.316 nM) was 0, the “Fluorescence value Well 1” value (GSK3β; 1.00 nM) was 0 and the “Fluorescence value Well 2” value (GSK3β; 1.00 nM) was 0. The “Fluorescence value Well 1” value (GSK3β; 3.16 nM) was 0, the “Fluorescence value Well 2” value (GSK3β; 3.16 nM) was 14 and the “Fluorescence value Well 1” value (GSK3β; 10.0 nM) was 12. The “Fluorescence value Well 2” value (GSK3β; 10.0 nM) was 23, the “Fluorescence value Well 1” value (GSK3β; 31.6 nM) was 21 and the “Fluorescence value Well 2” value (GSK3β; 31.6 nM) was 45. For the same molecule, the “Fluorescence value Well 1” value (GSK3β; 100 nM) was 75, the “Fluorescence value Well 2” value (GSK3β; 100 nM) was 60 and the “Fluorescence value Well 1” value (GSK3β; 316 nM) was 101. For the same molecule, the “Fluorescence value Well 2” value (GSK3β; 316 nM) was 96, the “GSK3β inhibitory activity in terms of the fluorescence value (mean from the two wells)” value (GSK3β; 1 μM) was 113.5 and the “Fluorescence value Well 1” value (GSK3β; 1000 nM) was 114. For the same molecule, the “Fluorescence value Well 2” value (GSK3β; 1000 nM) was 113, the “Fluorescence value Well 1” value (GSK3β; 3160 nM) was 99 and the “Fluorescence value Well 2” value (GSK3β; 3160 nM) was 136. For the same molecule, the “Fluorescence value Well 1” value (GSK3β; 10000 nM) was 88, the “Fluorescence value Well 2” value (GSK3β; 10000 nM) was 73 and the “presence of Sox10-positive cells” value (neural crest cells [3]) was “presence of Sox10-positive cells was confirmed”. The “percentage of SOX10 expression-positive cells” value ([1]; 3 μM CHIR99021, 10 μM SB431542, 40 ng/ml bFGF, 40 ng/ml EGF, on 121 days of culture) was “high percentage of SOX10 expression-positive cells was confirmed”, the “time of culture at which the number of cells that maintained multipotency decreased” value ([1]; CHIR99021 1 μM) was 21 days and the “percentage of SOX10 expression-positive cells” value ([1]; CHIR99021 1 μM, on 21 days of culture) was “decrease in the percentage of SOX10 expression-positive cells was observed”. The “percentage of SOX10 expression-positive cells” value ([1]; CHIR99021 1 μM, on 63 days of culture) was at most 25%, the “period over which multipotency was maintained” value ([1]; CHIR99021 2 μM) was at least 63 days and the “percentage of SOX10 expression-positive cells” value ([1]; CHIR99021 2 μM, on 63 days of culture) was at least 55%. For the same molecule, the “time of culture at which the number of cells that maintained multipotency decreased” value ([1]; CHIR99021 5 μM) was 42 days, the “percentage of SOX10 expression-positive cells” value ([1]; CHIR99021 5 μM, on 63 days of culture) was at most 5% and the “percentage of SOX10 expression-positive cells” value ([1]; CHIR99021 5 μM, up to 42 days of culture) was at least 55%. For the same molecule, the “period of culture and proliferation of neural crest cells that maintained multipotency” value ([1]; CHIR99021 3 to 4.5 μM) was at least 112 days and the “percentage of SOX10 expression-positive cells” value ([1]; CHIR99021 3 to 4.5 μM, on 121 days of culture) was at least 90%.
In the case of “EGF: epidermal growth factor, medium additive”, the “influence of concentration on change in total cell number” value [2] is reported as “no influence” and the “influence of concentration on change in the percentage of SOX10 expression-positive cells” value [1] is reported as “no influence”.
In the case of “bFGF: basic fibroblast growth factor (bFGF (also referred to as FGF2)), medium additive”, the “behavior of change in total cell number” value [2, 5] is reported as “substantially the same”, the “influence of concentration on change in total cell number” value [2] is reported as “no influence” and the “influence of bFGF concentration on the percentage of SOX10 expression positivity” value [1, 5] is reported as “no influence”. For the same molecule, the “influence of concentration on change in the percentage of SOX10 expression-positive cells” value [1] was “no influence” and the “number and ratio of neural crest cells in a cultured cell population” value (neural crest cells [4]) was “decreased in a concentration-dependent manner”.
